Consider 18 compounds from BindingDB's records for doi:10.7270/Q2M32T6M (Vanderbilt Screening Center for GPCRs, Ion Channels and …, 2009).

Each structure is given as a SMILES string.

The target of one assay is T1, Solute carrier family 12 member 5 (Homo sapiens, UniProt Q9H2X9).
T1 sequence (Q9H2X9 whole entry): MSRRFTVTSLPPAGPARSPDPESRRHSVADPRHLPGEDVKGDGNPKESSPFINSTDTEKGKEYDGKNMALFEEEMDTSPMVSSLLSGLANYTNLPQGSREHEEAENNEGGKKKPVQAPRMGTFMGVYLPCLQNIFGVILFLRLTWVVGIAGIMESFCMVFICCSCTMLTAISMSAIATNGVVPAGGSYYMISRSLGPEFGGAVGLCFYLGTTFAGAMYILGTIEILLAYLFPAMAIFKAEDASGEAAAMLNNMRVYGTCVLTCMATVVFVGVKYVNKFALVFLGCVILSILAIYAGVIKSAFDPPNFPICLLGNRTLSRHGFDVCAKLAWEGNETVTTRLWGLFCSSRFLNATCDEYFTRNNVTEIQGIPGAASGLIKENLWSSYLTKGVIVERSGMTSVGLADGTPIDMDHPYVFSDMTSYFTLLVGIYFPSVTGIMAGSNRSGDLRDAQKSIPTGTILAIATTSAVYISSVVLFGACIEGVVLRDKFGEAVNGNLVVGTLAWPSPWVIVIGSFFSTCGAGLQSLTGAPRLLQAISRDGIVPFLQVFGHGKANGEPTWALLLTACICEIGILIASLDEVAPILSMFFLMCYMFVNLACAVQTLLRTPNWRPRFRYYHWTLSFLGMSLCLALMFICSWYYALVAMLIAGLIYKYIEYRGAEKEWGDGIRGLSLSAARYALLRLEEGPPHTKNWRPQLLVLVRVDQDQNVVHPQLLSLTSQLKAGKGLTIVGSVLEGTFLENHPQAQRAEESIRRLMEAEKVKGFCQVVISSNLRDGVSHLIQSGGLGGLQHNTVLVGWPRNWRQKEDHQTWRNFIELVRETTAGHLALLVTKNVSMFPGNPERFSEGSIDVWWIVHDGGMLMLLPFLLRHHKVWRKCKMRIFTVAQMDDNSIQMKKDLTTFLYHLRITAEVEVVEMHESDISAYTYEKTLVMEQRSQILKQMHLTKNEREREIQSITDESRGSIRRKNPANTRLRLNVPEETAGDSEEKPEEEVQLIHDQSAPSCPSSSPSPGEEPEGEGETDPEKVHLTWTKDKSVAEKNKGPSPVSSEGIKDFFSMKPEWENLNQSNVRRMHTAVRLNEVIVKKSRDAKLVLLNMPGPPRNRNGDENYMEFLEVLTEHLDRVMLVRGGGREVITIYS
The assay can be described thus: concentration-response of KCC2 transport modulators – cell-based, HEK293 KCC2, FluoZin-2 fluorescence, dose response (AID 1736).
Conditions: not given
`CCOC(=O)c1cc2c(ccn2-c2ccc(F)cc2)n1CC(=O)NC(C)(C)C` [4-[2-(tert-butylamino)-2-keto-ethyl]-1-(4-fluorophenyl)pyrrolo[3,2-b]pyrrole-5-carboxylic acid ethyl ester]: it took 19.2 µM to reach a half-maximal effect (EC50).

As to `COc1ccc(-c2cc(CCCC(=O)NCCc3ccccc3)no2)cc1` [4-[5-(4-methoxyphenyl)-1,2-oxazol-3-yl]-N-(2-phenylethyl)butanamide], the EC50 (commonly the concentration giving half of the maximal effect) was found to be 0.642 µM. The same measure, in the same setting: next, `COCCN1C(=O)/C(=C/c2ccc(OCc3ccc(C(=O)O)cc3)c(OC)c2)S/C1=N/c1ccccc1` [4-[(2-methoxy-4-{[3-(2-methoxyethyl)-4-oxo-2-(phenylimino)-1,3-thiazolidin-5-ylidene]methyl}phenoxy)methyl]benzoic acid]: 27.3 µM; `Cc1n[nH]c(O)c1C(c1ccc(-c2ccc(F)cc2)o1)c1c(C)n[nH]c1O` [4-[[5-(4-fluorophenyl)furan-2-yl]-(3-methyl-5-oxo-1,2-dihydropyrazol-4-yl)methyl]-5-methyl-1,2-dihydropyrazol-3-one]: 9.41 µM.

For the compound `Cc1nn(-c2ccc(F)cc2)c(C)c1NS(=O)(=O)c1ccc(Cl)cc1` [4-chloranyl-N-[1-(4-fluorophenyl)-3,5-dimethyl-pyrazol-4-yl]benzenesulfonamide], the EC50 amounted to 3290 µM. The compound `O=S(=O)(Nc1nc2ccccc2nc1N1CCN(c2ccccn2)CC1)c1ccc(Cl)cc1` [4-chloranyl-N-[3-(4-pyridin-2-ylpiperazin-1-yl)quinoxalin-2-yl]benzenesulfonamide] had a 50% effective concentration (EC50) of 14.9 µM.

`COc1ccc(S(=O)(=O)N(C)CC(=O)N2CCN(Cc3ccccc3)CC2)cc1C` [4-methoxy-N,3-dimethyl-N-[2-oxidanylidene-2-[4-(phenylmethyl)piperazin-1-yl]ethyl]benzenesulfonamide] returned an EC50 of 2.26 µM. The same measure, in the same setting: with `Cc1ccc(CSCCNC(=O)c2ccc(C)cc2)cc1` [4-methyl-N-[2-[(4-methylbenzyl)thio]ethyl]benzamide] the figure was 15.4 µM. Still for that read-out and setting: next, `Sc1nnc(Cc2cccc3ccccc23)o1` [5-(1-naphthalenylmethyl)-3H-1,3,4-oxadiazole-2-thione]: 0.283 µM; `Sc1nnc(C2(c3ccccc3)CCCC2)o1` [5-(1-phenylcyclopentyl)-3H-1,3,4-oxadiazole-2-thione]: 1.31 µM. The same measure, in the same setting: next, `Sc1nnc(Cc2c[nH]c3ccccc23)o1` [5-(1H-indol-3-ylmethyl)-1,3,4-oxadiazole-2(3H)-thione]: 4.45 µM; `N#Cc1nc(Cc2cccc3ccccc23)oc1NCCN1CCOCC1` [5-(2-Morpholin-4-yl-ethylamino)-2-naphthalen-1-ylmethyl-oxazole-4-carbonitrile]: 9.4 µM.

The compound `COc1cccc(Nc2nnc(S)s2)c1` [5-(3-methoxyanilino)-3H-1,3,4-thiadiazole-2-thione] showed an EC50 of 3.43 µM.

Compound `Sc1nnc(COc2ccc(Cl)cc2)o1` [5-(4-Chloro-phenoxymethyl)-3H-[1,3,4]oxadiazole-2-thione] returned an EC50 of 3.12 µM. The same measure, in the same setting: next, `N#Cc1nc(-c2cccs2)oc1N1CCN(Cc2ccccc2)CC1` [5-(4-benzyl-1-piperazinyl)-2-(2-thienyl)-1,3-oxazole-4-carbonitrile]: 4.16 µM; `N#Cc1nc(Cc2cccc3ccccc23)oc1N1CCOCC1` [5-(4-morpholinyl)-2-(1-naphthalenylmethyl)-4-oxazolecarbonitrile]: 2.19 µM.

The assay is the same for the next values; noted with them: inactive by the depositor's call.
`Cc1ccc(S(=O)(=O)NCc2ccc(C(=O)N3CCN(Cc4ccccc4)CC3)cc2)cc1` [4-methyl-N-[[4-[4-(phenylmethyl)piperazin-1-yl]carbonylphenyl]methyl]benzenesulfonamide] returned an EC50 of 6.59 µM. On the same count and under the same terms, with `CC(C)c1ccc(NC(=O)c2cnn(-c3ccccc3)c2NC(=O)c2ccco2)cc1` [5-(2-furoylamino)-N-p-cumenyl-1-phenyl-pyrazole-4-carboxamide] the figure was 12.1 µM.
